In a melting point compilation (Tetko et al.):

melting point [°C]	SMILES
169 to 171	O=C(O)C1=NN(c2ccccc2)C(=O)CC1
83 to 85	COCCNS(=O)(=O)c1ccc(N)cc1
169 to 171	Cc1ccc2[nH]cnc2c1C
159 to 161	CCOC(=O)c1ccn[nH]1
194 to 196	COC(=O)c1cc(N)cc(S(C)(=O)=O)c1
34 to 36	O=C(O)C1C2CCCC21 (stereo not given)
169 to 171	CN1N=C(C(N)=O)CCC1=O
158 to 160	CS(=O)(=O)Cc1nc(=N)o[nH]1
51 to 53	O=S1(=O)CCN1
71 to 73	COC(=O)c1ccc2c(c1)CCCN2
66 to 68	COC(=O)C1CCN(S(=O)(=O)Cl)CC1
222 to 224	COC(=O)c1c(O)cc(=O)n2c1CCCCC2
95 to 97	Cc1cccc2c1CN(C(=O)OC(C)(C)C)CCN2
117 to 119	O=Cc1sc(N2CCCCC2)nc1-c1cccs1
123 to 125	O=Cc1cccc2nccn12
209 to 211	C=Cc1nc2sc3c(c2c(=O)[nH]1)CCCC3
196 to 198	O=C(O)c1ccc(Oc2ccccc2[N+](=O)[O-])cc1
90 to 92	CC(C)(C)OC(=O)NCCC1CNc2ccccc21 (stereo not given)
155 to 157	NS(=O)(=O)c1ccc2c(c1)OCO2
51 to 53	CCOC(=O)C(=O)CC(=O)c1ccc2ccccc2c1
209 to 211	COc1ccc(Br)cc1C1NC(=O)NC1=O (stereo not given)
135 to 137	Cc1cc2ncn(Cc3ccc(F)cc3)c2cc1C
130 to 132	CS(=O)(=O)CCOc1ccc(Br)cc1
270 to 272	O=C(O)c1ccc(S(=O)(=O)N2CCCCC2)cc1
156 to 158	O=C(Nc1ccc(-n2cccn2)c(F)c1)OCC(F)(F)F
231 to 233	O=C(O)c1cc(-c2ccc(Cl)s2)[nH]n1

melting point [°C]	SMILES
175 to 177	CCOC(=O)/C=C1/SCC(=O)N1Cc1cc(C(C)=O)ccc1OCC
60 to 62	O=C(c1cc(Cl)ccn1)N1CCCCC1
204 to 206	CC(=O)Nc1ccc(C(=O)O)nc1
190 to 192	O=C(O)C1CCN(C(=O)c2cccc3ccccc23)CC1
329 to 331	O=C(O)c1cc(-c2cccnc2)nc2nc(N3CCCC3)sc12
149 to 151	O=C(c1c(Cl)cccc1Cl)N1CCNCC1
35 to 37	Cc1cc(S(=O)(=O)Cl)sc1Br
191 to 193	N#Cc1ccc(CC(N)=O)cc1
267 to 269	Cc1[nH]c2ncnn2c(=O)c1CCO
107 to 109	O=Cc1ccc(-c2ccncc2)cc1F
65 to 67	CC(Oc1cccc(C=O)c1)C(=O)O (stereo not given)
149 to 151	O=Cc1cnn2cccnc12
102 to 104	O=C1CC(c2ccccc2)NCCN1 (stereo not given)
64 to 66	COc1ccc(C=NO)cc1
120 to 122	Nc1cc(S(=O)(=O)NC2CC2)c(Cl)cc1F
188 to 190	CC1CN(S(=O)(=O)c2cccc(C(=O)O)c2)CC(C)O1 (stereo not given)
84 to 86	Cc1nccn1-c1ccc(N)cc1F
93 to 95	CS(=O)(=O)c1cccc(NN)c1
55 to 59	CC(=O)c1ccc(OCC(=O)N2CCOCC2)cc1
186 to 188	O=Cc1c(-c2ccc(Br)s2)nc2ccccn12
187 to 189	O=c1[nH]c(S)nn1-c1ccccc1
90 to 92	O=Cc1cn(-c2ccccc2)nc1-c1cccs1
248 to 250	Nc1nc(-c2ccc3c(c2)CCC(=O)N3)cs1
154 to 156	CCNS(=O)(=O)c1ccc(F)c(C(=O)O)c1
158 to 160	CCc1ccc(C(=O)O)cc1[N+](=O)[O-]
173 to 175	Nc1nc(-c2ccc3c(c2)CCO3)cs1

melting point [°C]	SMILES
78 to 80	CC(=O)Nc1cccc(S(=O)(=O)Cl)c1
126 to 128	O=[N+]([O-])c1cc(Cl)cc(Br)c1O
225 to 227	O=C1COc2cc([N+](=O)[O-])ccc2N1
106 to 108	Nc1cc(CC2CCCCC2)no1
190 to 192	Cc1ccc(NC(N)=O)cc1F
166 to 168	Cc1nccn1-c1ncccc1N
250 to 252	O=C(O)c1ccc2[nH]c(=O)c(=O)[nH]c2c1
250 to 252	CCCCn1c(N)c(NC2CCCC2)c(=O)[nH]c1=O
79 to 81	O=C(c1ccc(Br)cc1)N1CCNCC1
215 to 217	Nc1cc(N2C(=O)CCC2=O)ccc1F
64 to 66	Cc1ccncc1-n1ccnc1
92 to 94	N#Cc1ccc(F)c(CN2CCCC2=O)c1
138 to 140	O=C(NC1CCNCC1)c1ccccc1
82 to 84	COc1ccc(C(N)CN2CCN(C)CC2)cc1 (stereo not given)
116 to 118	N#Cc1ccc(S(=O)(=O)CCCl)cc1
287 to 289	Cc1cc(C)nc(-n2cc(C(=O)O)c(C)n2)n1
241 to 243	O=C(O)c1ccc(-c2nc(C3CC3)no2)cc1
99 to 101	CC1Oc2c(ccc(Cl)c2Cl)C1=O (stereo not given)
161 to 163	O=c1[nH]ccn(C2CC2)c1=O
149 to 151	COC(=O)c1cccc(C(=O)O)n1
136 to 138	COc1ccc(C=O)cc1OCC(N)=O
115 to 117	CS(=O)(=O)C1CSCCN1 (stereo not given)
52 to 54	CC(C)S(=O)(=O)Nc1ccccc1F
211 to 213	CC(C)CNc1c(N)n(Cc2ccccc2)c(=O)[nH]c1=O
133 to 135	O=C(O)C1CCCN1C(=O)c1cncn1-c1ccccc1 (stereo not given)

Continued, molecule first:

SMILES	melting point [°C]
CC(C)(C#N)Nc1ccccc1	89 to 91
COc1ccc(N)cc1-n1cnnn1	139 to 141
CCC(C(=O)O)c1cccc(C(F)(F)F)c1 (stereo not given)	41 to 43
O=C(O)C=Cc1ccc(OCc2ccncc2)cc1	298 to 300
CSCCC(NC(=O)c1ccc2ccccc2n1)C(=O)O (stereo not given)	131 to 133
NC1CCCCNC1=O (stereo not given)	54 to 56
CCC(C#N)NC(=O)c1ccccc1 (stereo not given)	104 to 106
O=C(O)CCCCCc1ccc(I)cc1	65 to 67
CNC(=O)NC1(C(=O)O)CCCC1	165 to 167
N#Cc1ccccc1COc1ccc(C(=O)O)cc1	211 to 213
OC(c1cccc(F)c1)c1ccccn1 (stereo not given)	78 to 80
Cc1nc2ccccc2nc1Br	102 to 104
Cc1nc2ccccc2c(=O)n1-c1ccc(C(=O)O)cc1	220 to 222
CCOC(=O)c1cnc2c(OC)cc(Cl)c(OC)c2c1Cl	152 to 154
CC(C#N)Oc1cc(F)ccc1N (stereo not given)	89 to 91
CN(C)C(=O)c1ccc(Cl)cc1N	65 to 67
CC(=O)N(C)CCC(N)=S	109 to 111
CC(C)(C)C(=O)Cn1cc(C(=O)O)nn1	198 to 200
O=C(NCc1ccco1)c1cccc(CCl)c1	74 to 76
CCC(CC)C(N)=S	55 to 57
CC(O)C(NC(=O)C1CC1C)C(=O)O (stereo not given)	138 to 140
CC(Br)C(=O)C12CC3CC(CC(C3)C1)C2 (stereo not given)	86 to 88
CC(Cl)C(=O)NCc1ccc(Cl)cc1 (stereo not given)	100 to 102

SMILES	melting point [°C]
Brc1csc(Br)n1	80 to 84
CCOC(=O)CN(C(=O)CCl)c1ccccc1	130 to 135
Cc1nc(Cl)c(NN)nc1C	134 to 136
O=C(c1ccccc1)c1ncccn1	79 to 81
CCOC(=O)c1c(N)sc(-c2ccccc2)c1C	94 to 96
Cc1nnc(SCC(=O)O)n1Cc1ccccc1	167 to 169
Cc1nn2c(C=O)c(C(C)C)nc2s1	40 to 42
CC(C)C[C@H](NC(=O)OC(C)(C)C)C(=O)O	87 to 89
Sc1nc2c(s1)CCCC2	119 to 121
NC(Cn1cccn1)=NO	80 to 82
Cn1nnnc1-c1cccc(NC(=O)OCC(F)(F)F)c1	128 to 130
N#Cc1cnn(-c2ncccn2)c1N	320 to 322
O=C(O)c1ccc(NC(=O)c2ccco2)cc1	132 to 134
NC(=S)Cc1cn2cc(Cl)cc(Cl)c2n1	189 to 191
Cc1cccc(COc2ccccc2C(=O)O)c1	155 to 157
Cn1cc(CO)nn1	29 to 31
CCC(NC(N)=O)C(=O)O (stereo not given)	174 to 176
CC(Cl)C(=O)N1CCN(C(=O)OC(C)(C)C)CC1 (stereo not given)	115 to 117
Nc1cc(CSCCO)ccn1	90 to 92
CC(C)(C)S(=O)Cc1cccc(N)c1 (stereo not given)	121 to 123
Sc1nnnn1-c1ccccc1	145 to 147
CC(C)(CCC(=O)O)NC(=O)OC(C)(C)C	91 to 93
Nc1nncc(-c2ccc(OC(F)F)cc2)n1	223 to 225

SMILES	melting point [°C]
NC(=S)Cc1ccccc1	84 to 86
CCNc1nnc(S)s1	141 to 143
CCc1ccc(C(=O)CCl)s1	52 to 54
CC(C)(C)NS(=O)(=O)Cc1cccc(C(=O)O)c1	199 to 201
COc1ccccc1C(=O)c1ccccn1	49 to 51
O=C(O)c1cnc2ccsc2c1	259 to 261
Cc1c(N)cccc1C(=O)Nc1ccccc1	161 to 163
COc1cc(C=O)ccc1OCc1c(C)cc(C(C)(C)C)cc1C	139 to 141
CNc1ccc(C#N)cc1F	76 to 78
COC(=O)c1ccc(NC(=O)CCCCl)cc1	128 to 130
N#CCCOc1ccc(Br)cc1	76 to 78
N#Cc1ccc(N2CCN(c3ccccc3)CC2)nc1	131 to 133
Nc1ccc(Oc2ccccc2)cc1C(=O)O	138 to 140
Cc1ccc2ncccc2c1Br	44 to 46
COc1cccc(-n2c(C)nnc2SCC(=O)O)c1	130 to 132
N#Cc1ccc(F)c(CO)c1	48 to 50
Cc1nnc(S)n1-c1cccc(N)c1	219 to 221
N#Cc1ccc(NC(=O)OCC(F)(F)F)cc1	143 to 145
CN(c1ccccc1)S(=O)(=O)c1cccc(NC(=O)CCl)c1	98 to 100
CC(N)(C(N)=O)c1cccc(C(F)(F)F)c1 (stereo not given)	84 to 86
NCC(c1cccs1)c1c[nH]c2ccccc12 (stereo not given)	145 to 147
O=[N+]([O-])c1c(Cl)ccc2scnc12	132 to 134
